Data from patent publication US11912701B2, “Protein kinase inhibitors for promoting liver regeneration or reducing or preventing hepatocyte death” (HEPAREGENIX GMBH, priority 2018, dated 2024).

Key:
Format in all cases: biochemical
MKK4 = target: T1, MKK4 (Homo sapiens, UniProt P45985); assay: 33PanQinase enzyme assay, MKK4; conditions: assay 'IC50'; read-out: Potency MKK4 (IC50)
T1 construct: purchased ProQinase GmbH, Freiburg, Germany (33PanQinase Assay Service)
T1 sequence (P45985 1-399): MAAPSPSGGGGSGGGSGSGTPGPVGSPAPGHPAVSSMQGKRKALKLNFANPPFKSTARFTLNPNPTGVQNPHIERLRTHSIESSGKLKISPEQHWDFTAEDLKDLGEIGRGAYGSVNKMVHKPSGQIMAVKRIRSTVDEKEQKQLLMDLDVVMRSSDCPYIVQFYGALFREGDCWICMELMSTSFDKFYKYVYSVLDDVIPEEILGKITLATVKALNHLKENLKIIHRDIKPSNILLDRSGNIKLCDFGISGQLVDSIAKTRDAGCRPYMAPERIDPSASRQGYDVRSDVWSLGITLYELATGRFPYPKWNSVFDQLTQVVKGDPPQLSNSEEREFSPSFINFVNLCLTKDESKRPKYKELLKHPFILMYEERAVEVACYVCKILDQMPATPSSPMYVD
Outline: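 Radiometric 33PanQinase assay: kinase, substrate, ATP and compound in standard buffer, 60 min at 30 °C; 33Pi incorporation read by scintillation counting.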

BRaf = target: T2, BRaf (Homo sapiens, UniProt P15056); assay: 33PanQinase enzyme assay, BRaf; conditions: ratio IC50(BRaf)/IC50(MKK4)
T2 construct: purchased ProQinase GmbH, Freiburg, Germany (33PanQinase Assay Service)
Outline: (§1)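 Radiometric kinase reactions with ATP, test compound in DMSO and enzyme/substrate mix were incubated 60 min at 30 °C, stopped with 2% H3PO4 and washed; incorporated 33Pi was counted by scintillation. Single-concentration data are given as % residual activity; IC50 values come from least-squares curve fits.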

JNK1 = JNK1 (Homo sapiens, UniProt P45983); assay: 33PanQinase enzyme assay, JNK1; parameters: purchased ProQinase GmbH, Freiburg, Germany (33PanQinase Assay Service); conditions: ratio IC50(JNK1)/IC50(MKK4)
Outline: as §1

MKK7 = target: T3, MKK7 (Homo sapiens, UniProt O14733); assay: 33PanQinase enzyme assay, MKK7; parameters: purchased ProQinase GmbH, Freiburg, Germany (33PanQinase Assay Service); conditions: ratio IC50(MKK7)/IC50(MKK4)
T3 sequence (O14733 1-419): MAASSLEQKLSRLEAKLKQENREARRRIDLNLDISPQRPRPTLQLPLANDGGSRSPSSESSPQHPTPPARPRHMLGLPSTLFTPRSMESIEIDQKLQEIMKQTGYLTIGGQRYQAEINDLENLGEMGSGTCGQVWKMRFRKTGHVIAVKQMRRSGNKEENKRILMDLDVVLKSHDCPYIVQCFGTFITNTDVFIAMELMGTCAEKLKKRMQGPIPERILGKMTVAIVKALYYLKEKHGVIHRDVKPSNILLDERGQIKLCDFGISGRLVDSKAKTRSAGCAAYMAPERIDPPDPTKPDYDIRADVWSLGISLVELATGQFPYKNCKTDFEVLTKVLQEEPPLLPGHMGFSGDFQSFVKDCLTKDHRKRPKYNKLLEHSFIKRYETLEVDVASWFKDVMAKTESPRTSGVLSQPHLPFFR
Outline: as §1

T2 sequence (P15056 whole entry, species assumed): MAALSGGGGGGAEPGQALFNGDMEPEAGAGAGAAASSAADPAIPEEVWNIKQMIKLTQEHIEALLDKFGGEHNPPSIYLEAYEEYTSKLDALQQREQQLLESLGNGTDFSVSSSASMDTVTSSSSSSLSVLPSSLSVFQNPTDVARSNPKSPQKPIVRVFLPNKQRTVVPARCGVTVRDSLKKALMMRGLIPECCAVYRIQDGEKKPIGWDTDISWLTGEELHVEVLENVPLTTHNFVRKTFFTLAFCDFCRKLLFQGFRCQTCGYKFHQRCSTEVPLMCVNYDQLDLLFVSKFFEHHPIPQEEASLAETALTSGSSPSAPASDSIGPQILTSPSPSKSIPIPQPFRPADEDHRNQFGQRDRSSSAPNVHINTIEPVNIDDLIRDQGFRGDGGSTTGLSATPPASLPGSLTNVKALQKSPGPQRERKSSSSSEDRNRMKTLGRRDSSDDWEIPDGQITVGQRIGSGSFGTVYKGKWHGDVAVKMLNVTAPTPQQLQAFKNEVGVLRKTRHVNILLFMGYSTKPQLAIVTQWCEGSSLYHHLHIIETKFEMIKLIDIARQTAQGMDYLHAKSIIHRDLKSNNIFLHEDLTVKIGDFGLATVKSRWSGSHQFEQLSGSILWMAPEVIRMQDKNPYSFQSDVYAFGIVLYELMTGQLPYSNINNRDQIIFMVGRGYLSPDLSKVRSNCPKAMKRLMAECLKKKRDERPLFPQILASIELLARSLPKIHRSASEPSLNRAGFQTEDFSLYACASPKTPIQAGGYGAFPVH
Chain of JNK1 (P45983 whole entry): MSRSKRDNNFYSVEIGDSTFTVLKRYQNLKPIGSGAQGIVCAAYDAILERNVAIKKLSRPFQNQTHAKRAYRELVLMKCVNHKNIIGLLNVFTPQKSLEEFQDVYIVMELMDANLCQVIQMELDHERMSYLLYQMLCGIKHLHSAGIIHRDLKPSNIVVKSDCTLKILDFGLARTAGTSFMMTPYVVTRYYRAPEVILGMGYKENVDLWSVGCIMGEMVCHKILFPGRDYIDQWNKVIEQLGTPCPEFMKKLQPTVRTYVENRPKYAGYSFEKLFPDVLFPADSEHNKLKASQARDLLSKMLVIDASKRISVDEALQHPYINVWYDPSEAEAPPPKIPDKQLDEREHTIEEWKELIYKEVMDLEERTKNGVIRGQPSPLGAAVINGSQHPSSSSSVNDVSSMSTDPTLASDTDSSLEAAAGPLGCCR

CCCS(=O)(=O)Nc1ccc(F)c(C(=O)c2c[nH]c3ncc(-c4ccc(SCCN)cc4)cc23)c1F [Example 76, N-(3-(5-(4-((2-aminoethyl)thio)phenyl)-1H-pyrrolo[2,3-b]pyridine-3-carbonyl)-2,4-difluorophenyl)propane-1-sulfonamide]
IC50 (MKK4): 100 to 1000 nM
Selectivity Braf, IC50(off-target)/IC50(MKK4) (BRaf): ◯ (3 ≥ IC50(off-target)/IC50(MKK4))
Selectivity JNK1, IC50(off-target)/IC50(MKK4) (JNK1): + (10 ≥ IC50(off-target)/IC50(MKK4) > 3)
Selectivity IVIKK7, IC50(off-target)/IC50(MKK4) (MKK7): +++ (IC50(off-target)/IC50(MKK4) > 100)

CCCS(=O)(=O)Nc1c(F)ccc(C(=O)c2c[nH]c3ncc(-c4cnc(C(C)(C)C)nc4)cc23)c1F [Example 196, N-(3-(5-(2-(tert-butyl)pyrimidin-5-yl)-1H-pyrrolo[2,3-b]pyridine-3-carbonyl)-2,6-difluorophenyl)propane-1-sulfonamide]
IC50 (MKK4): < 100 nM
Selectivity Braf, IC50(off-target)/IC50(MKK4) (BRaf): +++ (IC50(off-target)/IC50(MKK4) > 100)
Selectivity JNK1, IC50(off-target)/IC50(MKK4) (JNK1): +++ (IC50(off-target)/IC50(MKK4) > 100)
Selectivity IVIKK7, IC50(off-target)/IC50(MKK4) (MKK7): +++ (IC50(off-target)/IC50(MKK4) > 100)

CCCS(=O)(=O)Nc1c(F)ccc(C(=O)c2c[nH]c3ncc(-c4cnc(C)cc4C)cc23)c1F [Example 171, N-(3-(5-(4,6-dimethylpyridin-3-yl)-1H-pyrrolo[2,3-b]pyridine-3-carbonyl)-2,6-difluorophenyl)propane-1-sulfonamide]
IC50 (MKK4): < 100 nM
Selectivity Braf, IC50(off-target)/IC50(MKK4) (BRaf): +++ (IC50(off-target)/IC50(MKK4) > 100)
Selectivity JNK1, IC50(off-target)/IC50(MKK4) (JNK1): +++ (IC50(off-target)/IC50(MKK4) > 100)
Selectivity IVIKK7, IC50(off-target)/IC50(MKK4) (MKK7): +++ (IC50(off-target)/IC50(MKK4) > 100)

CCCS(=O)(=O)Nc1ccc(F)c(C(=O)c2c[nH]c3ncc(-c4ccc(NC(C)=O)cc4)cc23)c1F [Example 116, N-(4-(3-(2,6-difluoro-3-(propylsulfonamido)benzoyl)-1H-pyrrolo[2,3-b]pyridin-5-yl)phenyl)acetamide]
IC50 (MKK4): 100 to 1000 nM
Selectivity Braf, IC50(off-target)/IC50(MKK4) (BRaf): ◯ (3 ≥ IC50(off-target)/IC50(MKK4))
Selectivity JNK1, IC50(off-target)/IC50(MKK4) (JNK1): ◯ (3 ≥ IC50(off-target)/IC50(MKK4))
Selectivity IVIKK7, IC50(off-target)/IC50(MKK4) (MKK7): +++ (IC50(off-target)/IC50(MKK4) > 100)

CCCS(=O)(=O)Nc1c(F)ccc(C(=O)c2c[nH]c3ncc(-c4cnc(NCCCOC)nc4)cc23)c1F [Example 192, N-(2,6-difluoro-3-(5-(2-((3-methoxypropyl)amino)pyrimidin-5-yl)-1H-pyrrolo[2,3-b]pyridine-3-carbonyl)phenyl)propane-1-sulfonamide]
IC50 (MKK4): 100 to 1000 nM
Selectivity Braf, IC50(off-target)/IC50(MKK4) (BRaf): +++ (IC50(off-target)/IC50(MKK4) > 100)
Selectivity JNK1, IC50(off-target)/IC50(MKK4) (JNK1): ++ (100 ≥ IC50(off-target)/IC50(MKK4) > 10)
Selectivity IVIKK7, IC50(off-target)/IC50(MKK4) (MKK7): +++ (IC50(off-target)/IC50(MKK4) > 100)

CCCS(=O)(=O)Nc1c(F)ccc(C(=O)c2c[nH]c3ncc(-c4ccc(C)nc4C)cc23)c1F [Example 165, N-(3-(5-(2,6-dimethylpyridin-3-yl)-1H-pyrrolo[2,3-b]pyridine-3-carbonyl)-2,6-difluorophenyl)propane-1-sulfonamide]
IC50 (MKK4): < 100 nM
Selectivity Braf, IC50(off-target)/IC50(MKK4) (BRaf): +++ (IC50(off-target)/IC50(MKK4) > 100)
Selectivity JNK1, IC50(off-target)/IC50(MKK4) (JNK1): +++ (IC50(off-target)/IC50(MKK4) > 100)
Selectivity IVIKK7, IC50(off-target)/IC50(MKK4) (MKK7): +++ (IC50(off-target)/IC50(MKK4) > 100)

CCCS(=O)(=O)Nc1c(F)ccc(C(=O)c2c[nH]c3ncc(-c4ccccc4C)cc23)c1F [Example 215, N-(2,6-difluoro-3-(5-(o-tolyl)-1H-pyrrolo[2,3-b]pyridine-3-carbonyl)phenyl)propane-1-sulfonamide]
IC50 (MKK4): 100 to 1000 nM
Selectivity Braf, IC50(off-target)/IC50(MKK4) (BRaf): ◯ (3 ≥ IC50(off-target)/IC50(MKK4))
Selectivity JNK1, IC50(off-target)/IC50(MKK4) (JNK1): + (10 ≥ IC50(off-target)/IC50(MKK4) > 3)
Selectivity IVIKK7, IC50(off-target)/IC50(MKK4) (MKK7): +++ (IC50(off-target)/IC50(MKK4) > 100)

CCCS(=O)(=O)Nc1c(F)ccc(C(=O)c2c[nH]c3ncc(-c4cnc(N5CCN(C)CC5)nc4)cc23)c1F [Example 194, N-(2,6-difluoro-3-(5-(2-(4-methylpiperazin-1-yl)pyrimidin-5-yl)-1H-pyrrolo[2,3-b]pyridine-3-carbonyl)phenyl)propane-1-sulfonamide]
IC50 (MKK4): 100 to 1000 nM
Selectivity Braf, IC50(off-target)/IC50(MKK4) (BRaf): ++ (100 ≥ IC50(off-target)/IC50(MKK4) > 10)
Selectivity JNK1, IC50(off-target)/IC50(MKK4) (JNK1): ++ (100 ≥ IC50(off-target)/IC50(MKK4) > 10)
Selectivity IVIKK7, IC50(off-target)/IC50(MKK4) (MKK7): +++ (IC50(off-target)/IC50(MKK4) > 100)

CCCS(=O)(=O)Nc1c(F)ccc(C(=O)c2c[nH]c3ncc(-c4ccc(C(=O)O)cc4)cc23)c1F [Example 222, 4-(3-(2,4-difluoro-3-(propylsulfonamido)benzoyl)-1H-pyrrolo[2,3-b]pyridin-5-yl)benzoic acid]
IC50 (MKK4): < 100 nM
Selectivity Braf, IC50(off-target)/IC50(MKK4) (BRaf): +++ (IC50(off-target)/IC50(MKK4) > 100)
Selectivity JNK1, IC50(off-target)/IC50(MKK4) (JNK1): ++ (100 ≥ IC50(off-target)/IC50(MKK4) > 10)
Selectivity IVIKK7, IC50(off-target)/IC50(MKK4) (MKK7): +++ (IC50(off-target)/IC50(MKK4) > 100)

O=C(c1cccc(NS(=O)(=O)Cc2ccccc2)c1F)c1c[nH]c2ncc(-c3cccnc3)cc12 [Example 132, N-(2-fluoro-3-(5-(pyridin-3-yl)-1H-pyrrolo[2,3-b]pyridine-3-carbonyl)phenyl)-1-phenylmethanesulfonamide]
IC50 (MKK4): 100 to 1000 nM
Selectivity Braf, IC50(off-target)/IC50(MKK4) (BRaf): ++ (100 ≥ IC50(off-target)/IC50(MKK4) > 10)
Selectivity JNK1, IC50(off-target)/IC50(MKK4) (JNK1): ◯ (3 ≥ IC50(off-target)/IC50(MKK4))
Selectivity IVIKK7, IC50(off-target)/IC50(MKK4) (MKK7): +++ (IC50(off-target)/IC50(MKK4) > 100)

CCCS(=O)(=O)Nc1c(F)ccc(C(=O)c2c[nH]c3ncc(-c4ccncc4C)cc23)c1F [Example 235, N-(2,6-difluoro-3-(5-(3-methylpyridin-4-yl)-1H-pyrrolo[2,3-b]pyridine-3-carbonyl)phenyl)propane-1-sulfonamide]
IC50 (MKK4): < 100 nM
Selectivity Braf, IC50(off-target)/IC50(MKK4) (BRaf): +++ (IC50(off-target)/IC50(MKK4) > 100)
Selectivity JNK1, IC50(off-target)/IC50(MKK4) (JNK1): +++ (IC50(off-target)/IC50(MKK4) > 100)
Selectivity IVIKK7, IC50(off-target)/IC50(MKK4) (MKK7): +++ (IC50(off-target)/IC50(MKK4) > 100)

CS(=O)(=O)Nc1c(F)ccc(C(=O)c2c[nH]c3ncc(-c4ccc(Cl)cc4)cc23)c1F [Example 149, N-(3-(5-(4-chlorophenyl)-1H-pyrrolo[2,3-b]pyridine-3-carbonyl)-2,6-difluorophenyl)methanesulfonamide]
IC50 (MKK4): 100 to 1000 nM
Selectivity Braf, IC50(off-target)/IC50(MKK4) (BRaf): ++ (100 ≥ IC50(off-target)/IC50(MKK4) > 10)
Selectivity JNK1, IC50(off-target)/IC50(MKK4) (JNK1): ++ (100 ≥ IC50(off-target)/IC50(MKK4) > 10)
Selectivity IVIKK7, IC50(off-target)/IC50(MKK4) (MKK7): +++ (IC50(off-target)/IC50(MKK4) > 100)
